Data on 5 molecules can be found in US20180055915A1, “COMPOSITIONS AND METHODS FOR TREATING PROSTATE CANCER” (UNIVERSITY OF ROCHESTER, priority 2016, published 2018).

For assay [1], the system named is wild type AR, ARv7, AR-F876L. The settings on record: cited from earlier work.
Assay [2] relates to PCa cell. As to conditions: in vitro and in vivo; cited from earlier work.
The test system of assay [3] is Enz-S1-C4-2 cells. Briefly: Enz sensitivity after 2 months treatment (MTT proliferation). The class given is cell-based. How it is done:
(§1) Cells were seeded in 24-well plates (5×10^3 cells/500 μL media per well) and cultured for 0, 2, 4 and 6 days. Cells were harvested and cell numbers and absorbance were calculated and recorded after using yellow tetrazolium MTT (3-(4, 5-dimethylthiazolyl-2)-2,5-diphenyltetrazolium bromide agent.

Assay [4] has as its system EnzR1-C4-2 cells. Briefly: MTT cell proliferation assay, EnzR1-C4-2. The class given is cell-based. As to conditions: 20 uM Enz alone, FIG. 2A. The protocol:
as §1
For orientation: Formazan colour is commonly taken as a measure of viable cells.

Assay [5] concerns ARv7 mRNA. Kind of assay: ARv7 mRNA expression (real-time PCR). The settings on record: Enz-S1-C4-2 cells, Enz treatment, FIG. 3D. The class given is cell-based. The protocol:
Total RNAs were isolated using Trizol reagent (Invitrogen, Grand Island, N.Y.). 2 μg of total RNA was subjected to reverse transcription using Superscript III transcriptase (Invitrogen). Quantitative real-time PCR (qRT-PCR) was conducted using a Bio-Rad CFX96 system with SYBR green to determine the mRNA expression level of a gene of interest. Expression levels were normalized to the expression of GAPDH.

The conditions of assay [6]: CRPC patients; cited from earlier work.
For assay [7], the target named is T1, ARv7 (Homo sapiens, UniProt P10275).
T1 construct: endogenous in cells; host or cells: EnzR1 C4-2, EnzR3 C4-2B, EnzR2 CWR22Rv1
T1 sequence (P10275 1-644 isoform P10275-3): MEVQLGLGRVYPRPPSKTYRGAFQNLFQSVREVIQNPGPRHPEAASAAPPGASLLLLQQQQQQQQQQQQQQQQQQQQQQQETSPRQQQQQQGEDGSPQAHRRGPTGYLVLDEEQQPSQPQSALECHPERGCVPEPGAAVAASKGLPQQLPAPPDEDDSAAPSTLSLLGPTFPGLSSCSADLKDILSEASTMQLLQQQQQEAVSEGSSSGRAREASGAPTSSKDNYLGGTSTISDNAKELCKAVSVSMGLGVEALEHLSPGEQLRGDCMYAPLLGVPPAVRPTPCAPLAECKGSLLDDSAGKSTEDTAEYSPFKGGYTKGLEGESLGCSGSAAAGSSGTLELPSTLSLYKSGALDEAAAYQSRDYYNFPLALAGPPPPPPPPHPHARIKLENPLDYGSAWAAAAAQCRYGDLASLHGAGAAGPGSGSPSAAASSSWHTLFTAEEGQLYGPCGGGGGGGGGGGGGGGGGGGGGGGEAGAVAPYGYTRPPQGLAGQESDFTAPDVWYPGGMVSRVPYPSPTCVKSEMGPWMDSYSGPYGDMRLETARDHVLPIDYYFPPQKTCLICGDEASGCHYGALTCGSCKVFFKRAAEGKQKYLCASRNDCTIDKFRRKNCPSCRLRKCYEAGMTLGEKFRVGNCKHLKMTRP
Briefly: ARv7 protein expression/degradation in CRPC cells (western blot). The class given is cell-based. The settings on record: MG132 with Cis 6 hrs, FIG. 4B. The protocol: To further dissect the mechanism(s) why Cis can decrease ARv7 (and AR) protein expression, first assayed was the Cis effects on ARv7 (and AR) protein stability with protein biosynthesis inhibitor, cycloheximide (CHX) and proteasome inhibitor MG132 in EnzR2-CWR22Rv1 cells.
For protein degradation, EnzR C4-2 cells were treated with 1 μg/mL Cisplatin for 6 hr. Cycloheximide or MG132 was added for another 4 hrs. For ubiquitination, human kidney epithelial HEK293T cells were grown in DMEM media with 10% FCS. Cells were plated at ˜60% confluency and pGFP-ubiquitin, pAR were transiently transfected into cells using CaCl2 reagent. After 48 hrs. of transfection, cells were treated with 1 μg/mL Cisplatin for 6 hrs. […], MG132, was added for another 4 hrs. Cell extracts were analyzed for AR degradation or AR-ubiquitination by using western blot.
Cells were lysed in lysis buffer and proteins (50 μg) were separated on 10% SDS/PAGE gel and then transferred onto PVDF membranes (Millipore, Billerica, Mass.). After blocking membranes with 5% milk, they were incubated with appropriate dilutions of specific primary antibodies (anti-AR (N-20), anti-SF2, anti-GFP, anti-GAPDH, anti-a-tubulin). The blots were incubated with HRP-conjugated secondary antibodies and visualized using ECL system (Thermo Fisher Scientific, Rochester, N.Y.).
In general terms: A western blot detects proteins with antibodies after separation by electrophoresis.

Residues, ends and D or L forms follow the SMILES beside them. *: point of attachment. Cbz = O=C(OCc1ccccc1)*

`CC(O)(CS(=O)(=O)c1ccc(F)cc1)C(=O)Nc1ccc(C#N)c(C(F)(F)F)c1` (stereo not drawn) [Casodex]: the “degradation of wild type AR, ARv7 and AR mutants including AR-F876L” value in assay [1] is reported as “not”.
In the case of `O=C(Nc1ccc([N+](=O)[O-])cc1Cl)c1cc(Cl)ccc1O` [niclosamide], the PCa cell growth result in assay [2] is “suppress the PCa cell growth in vitro and in vivo”.
Consider `CNC(=O)c1ccc(N2C(=S)N(c3ccc(C#N)c(C(F)(F)F)c3)C(=O)C2(C)C)cc1F` [Enz, 4-(3-(4-Cyano-3-(trifluoromethyl)phenyl)-5,5-dimethyl-4-oxo-2-thioxoimidazolidin-1-yl)-2-fluoro-N-methylbenzamide], for which the Enz sensitivity in assay [3] (Enz-S1-C4-2 cells before long-term treatment, FIG. 3A) worked out at 54%; in assay [3] (after 10 uM Enz alone for 2 months, FIG. 3B), 38%. In addition, in assay [4], the “suppression of cell growth” value is listed as “little effect”. In addition, in assay [5], the “ARv7 mRNA expression” value was “led to increase ARv7 mRNA expression”. Further, the “extension of overall survival (average)” value in assay [6] is 4.8 months.
For the molecule `CC(C)C[C@@H](C=O)NC(=O)[C@H](CC(C)C)NC(=O)[C@H](CC(C)C)NC(=O)OCc1ccccc1` [MG132] (Cbz-Leu-Leu-Leu-aldehyde), the “effect on Cis-induced ARv7 (and AR) degradation” value in assay [7] is given as “attenuate/inhibit the effect of Cis on ARv7 (and AR) degradation”.
As for `COc1ccc(/C=C/C(=O)/C=C(O)/C=C/c2ccc(OC)c(OC)c2)cc1OC` [ASC-J9®], the “degradation of wild type AR, ARv7 and AR mutants including AR-F876L” value in assay [1] was “could degrade both wild type AR and the AR variant ARv7 or AR mutants including AR-F876L”.
